Measured values: PubChem BioAssay AID2060503 (Molecular Pharmacology Branch, DTP, NCI, 2025)

Test system: 817829-284-R-J1-PDC complex spheroids, viability
Assay: Anticancer human tumor 817829-284-R-J1-PDC patient-derived colon adenocarcinoma cell line growth inhibition [GQUAD]
Conditions: for IC50: curve of first compound; for viability, T/C: stronger effect = lower value
Summary of the method: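 Viability of tumor cells grown as complex spheroids with endothelial and stromal cells, exposed to drug combinations. Top concentration at or near clinical Cmax (else 10 microM), diluted in half-log increments.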

[1] = second compound 0.0316 µM, first compound 0.0316 µM
[2] = second compound 0.0316 µM, first compound 0.1 µM
[3] = second compound 0.0316 µM, first compound 0.316 µM
[4] = second compound 0.0316 µM, first compound 1 µM
[5] = second compound 0.0316 µM, first compound 3.16 µM
[6] = second compound 0.0316 µM, first compound 10 µM
[7] = second compound 0.1 µM, first compound 0.0316 µM
[8] = second compound 0.1 µM, first compound 0.1 µM
[9] = second compound 0.1 µM, first compound 0.316 µM
[10] = second compound 0.1 µM, first compound 1 µM
[11] = second compound 0.1 µM, first compound 3.16 µM
[12] = second compound 0.1 µM, first compound 10 µM
[13] = second compound 0.316 µM, first compound 0.0316 µM
[14] = second compound 0.316 µM, first compound 0.1 µM
[15] = second compound 0.316 µM, first compound 0.316 µM
[16] = second compound 0.316 µM, first compound 1 µM
[17] = second compound 0.316 µM, first compound 3.16 µM
[18] = second compound 0.316 µM, first compound 10 µM
[19] = second compound 1 µM, first compound 0.0316 µM
[20] = second compound 1 µM, first compound 0.1 µM
[21] = second compound 1 µM, first compound 0.316 µM
[22] = second compound 1 µM, first compound 1 µM
[23] = second compound 1 µM, first compound 3.16 µM
[24] = second compound 1 µM, first compound 10 µM
[25] = second compound 3.16 µM, first compound 0.0316 µM
[26] = second compound 3.16 µM, first compound 0.1 µM
[27] = second compound 3.16 µM, first compound 0.316 µM
[28] = second compound 3.16 µM, first compound 1 µM
[29] = second compound 3.16 µM, first compound 3.16 µM
[30] = second compound 3.16 µM, first compound 10 µM
[31] = second compound 10 µM, first compound 0.0316 µM
[32] = second compound 10 µM, first compound 0.1 µM
[33] = second compound 10 µM, first compound 0.316 µM
[34] = second compound 10 µM, first compound 1 µM
[35] = second compound 10 µM, first compound 3.16 µM
[36] = second compound 10 µM, first compound 10 µM
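Note: spheroids exposed to agents for 7 days before readout.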
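Throughout, for viability, T/C: percent viability relative to DMSO vehicle control taken as 100%.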

What does the source list for `COc1ncnc(C2CC2)c1-c1ncc2cnn(Cc3ccc(-c4nc(C(F)(F)F)cn4C(C)C)cc3)c2n1` + Cc1cnc(CNC(=O)c2c(=O)c3ccc(N4CCCN(C)CC4)nc3n3c2sc2ccccc23)cn1?
IC50 (second compound 0.0316 µM): > 10000 nM; IC50 (second compound 0.1 µM): < 31.6 nM; IC50 (second compound 0.316 µM): < 31.6 nM; IC50 (second compound 1 µM): < 31.6 nM; IC50 (second compound 3.16 µM): < 31.6 nM; IC50 (second compound 10 µM): < 31.6 nM; viability, T/C [1]: 63.5%; viability, T/C [2]: 51.9%; viability, T/C [3]: 55.5%; viability, T/C [4]: 43.7%; viability, T/C [5]: 66%; viability, T/C [6]: 64.1%; viability, T/C [7]: 28.1%; viability, T/C [8]: 31.1%; viability, T/C [9]: 28.2%; viability, T/C [10]: 29.5%; viability, T/C [11]: 28.4%; viability, T/C [12]: 33.2%; viability, T/C [13]: 19.2%; viability, T/C [14]: 26.4%; viability, T/C [15]: 20.8%; viability, T/C [16]: 25.4%; viability, T/C [17]: 25.6%; viability, T/C [18]: 22.8%; viability, T/C [19]: 19.3%; viability, T/C [20]: 22.8%; viability, T/C [21]: 21.1%; viability, T/C [22]: 20.8%; viability, T/C [23]: 22.1%; viability, T/C [24]: 18%; viability, T/C [25]: 16.9%; viability, T/C [26]: 18.9%; viability, T/C [27]: 17.7%; viability, T/C [28]: 19.4%; viability, T/C [29]: 21.6%; viability, T/C [30]: 18.1%; viability, T/C [31]: 0.12%; viability, T/C [32]: 0.17%; viability, T/C [33]: 0.18%; viability, T/C [34]: 0.16%; viability, T/C [35]: 0.21%; viability, T/C [36]: 0.22%

Which IC50 (second compound 0.0316 µM) does the source give for `Cc1[nH]c2ccccc2c1CCNCc1ccc(/C=C/C(=O)NO)cc1` + Cc1cnc(CNC(=O)c2c(=O)c3ccc(N4CCCN(C)CC4)nc3n3c2sc2ccccc23)cn1 here?
The IC50 was 7.25 nM.

And the IC50 (second compound 0.1 µM)?
Its IC50 is less than 0.999 nM.

And the IC50 (second compound 0.316 µM)?
Its IC50 is less than 0.999 nM.

And the IC50 (second compound 1 µM)?
Its IC50 is less than 0.999 nM.

What about the IC50 (second compound 3.16 µM) of the same compound?
The IC50 was less than 0.999 nM.

What about the IC50 (second compound 10 µM) of the same compound?
Its IC50 is less than 0.999 nM.

What about the viability, T/C (second compound 0.0316 µM, first compound 0.000999 µM) of the same compound?
Its viability, T/C is 83.2%.

And the viability, T/C (second compound 0.0316 µM, first compound 0.00316 µM)?
The viability, T/C was 67.1%.

What about the viability, T/C (second compound 0.0316 µM, first compound 0.00999 µM) of the same compound?
The viability, T/C was 44.2%.

What about the viability, T/C [1] of the same compound?
Its viability, T/C is 17.7%.

What about the viability, T/C (second compound 0.0316 µM, first compound 0.0999 µM) of the same compound?
Its viability, T/C is 5.1%.

What about the viability, T/C [3] of the same compound?
Its viability, T/C is 0.06%.

What about the viability, T/C (second compound 0.1 µM, first compound 0.000999 µM) of the same compound?
The viability, T/C was 27.4%.

What about the viability, T/C (second compound 0.1 µM, first compound 0.00316 µM) of the same compound?
The viability, T/C was 31.7%.

And the viability, T/C (second compound 0.1 µM, first compound 0.00999 µM)?
The viability, T/C was 21.3%.

And the viability, T/C [7]?
The viability, T/C was 18.4%.

What about the viability, T/C (second compound 0.1 µM, first compound 0.0999 µM) of the same compound?
Its viability, T/C is 6.46%.

And the viability, T/C [9]?
The viability, T/C was 0.06%.

And the viability, T/C (second compound 0.316 µM, first compound 0.000999 µM)?
The viability, T/C was 21.5%.

And the viability, T/C (second compound 0.316 µM, first compound 0.00316 µM)?
The viability, T/C was 24.8%.

What about the viability, T/C (second compound 0.316 µM, first compound 0.00999 µM) of the same compound?
Its viability, T/C is 17.1%.

And the viability, T/C [13]?
The viability, T/C was 15.9%.

What about the viability, T/C (second compound 0.316 µM, first compound 0.0999 µM) of the same compound?
Its viability, T/C is 4.53%.

And the viability, T/C [15]?
Its viability, T/C is 0.05%.

And the viability, T/C (second compound 1 µM, first compound 0.000999 µM)?
Its viability, T/C is 18.3%.

What about the viability, T/C (second compound 1 µM, first compound 0.00316 µM) of the same compound?
The viability, T/C was 20.6%.

And the viability, T/C (second compound 1 µM, first compound 0.00999 µM)?
Its viability, T/C is 15.7%.

What about the viability, T/C [19] of the same compound?
Its viability, T/C is 13.7%.

What about the viability, T/C (second compound 1 µM, first compound 0.0999 µM) of the same compound?
The viability, T/C was 3.62%.

What about the viability, T/C [21] of the same compound?
Its viability, T/C is 0.06%.

And the viability, T/C (second compound 3.16 µM, first compound 0.000999 µM)?
The viability, T/C was 15.1%.

And the viability, T/C (second compound 3.16 µM, first compound 0.00316 µM)?
The viability, T/C was 18.6%.

And the viability, T/C (second compound 3.16 µM, first compound 0.00999 µM)?
Its viability, T/C is 15.4%.

And the viability, T/C [25]?
The viability, T/C was 11.8%.

What about the viability, T/C (second compound 3.16 µM, first compound 0.0999 µM) of the same compound?
The viability, T/C was 0.11%.

And the viability, T/C [27]?
The viability, T/C was 0.1%.

And the viability, T/C (second compound 10 µM, first compound 0.000999 µM)?
The viability, T/C was 0.1%.

What about the viability, T/C (second compound 10 µM, first compound 0.00316 µM) of the same compound?
The viability, T/C was 0.14%.

And the viability, T/C (second compound 10 µM, first compound 0.00999 µM)?
The viability, T/C was 0.2%.

What about the viability, T/C [31] of the same compound?
Its viability, T/C is 0.18%.

And the viability, T/C (second compound 10 µM, first compound 0.0999 µM)?
Its viability, T/C is 0.2%.

And the viability, T/C [33]?
The viability, T/C was 0.2%.

Which IC50 (second compound 0.0316 µM) does the source give for `O=C(NO)c1cnc(N2CCN(S(=O)(=O)c3ccc4ccccc4c3)CC2)nc1` + Cc1cnc(CNC(=O)c2c(=O)c3ccc(N4CCCN(C)CC4)nc3n3c2sc2ccccc23)cn1 here?
Its IC50 is 53.3 nM.

What about the IC50 (second compound 0.1 µM) of the same compound?
The IC50 was less than 31.6 nM.

What about the IC50 (second compound 0.316 µM) of the same compound?
Its IC50 is less than 31.6 nM.

And the IC50 (second compound 1 µM)?
Its IC50 is less than 31.6 nM.

What about the IC50 (second compound 3.16 µM) of the same compound?
Its IC50 is less than 31.6 nM.

What about the IC50 (second compound 10 µM) of the same compound?
The IC50 was less than 31.6 nM.

What about the viability, T/C [1] of the same compound?
Its viability, T/C is 77.5%.

What about the viability, T/C [2] of the same compound?
The viability, T/C was 16.4%.

And the viability, T/C [3]?
The viability, T/C was 5.04%.

And the viability, T/C [4]?
Its viability, T/C is 0.12%.

And the viability, T/C [5]?
The viability, T/C was 0.03%.

What about the viability, T/C [6] of the same compound?
Its viability, T/C is 0.07%.

What about the viability, T/C [7] of the same compound?
The viability, T/C was 19.2%.

And the viability, T/C [8]?
The viability, T/C was 21.4%.

And the viability, T/C [9]?
The viability, T/C was 3.6%.

What about the viability, T/C [10] of the same compound?
Its viability, T/C is 0.1%.

And the viability, T/C [11]?
The viability, T/C was 0.02%.

What about the viability, T/C [12] of the same compound?
Its viability, T/C is 0.06%.

And the viability, T/C [13]?
The viability, T/C was 18.8%.

And the viability, T/C [14]?
The viability, T/C was 18.1%.

And the viability, T/C [15]?
Its viability, T/C is 4.03%.

What about the viability, T/C [16] of the same compound?
Its viability, T/C is 0.05%.

What about the viability, T/C [17] of the same compound?
The viability, T/C was 0.02%.

What about the viability, T/C [18] of the same compound?
The viability, T/C was 0.06%.

What about the viability, T/C [19] of the same compound?
The viability, T/C was 17.5%.

And the viability, T/C [20]?
The viability, T/C was 16.4%.

And the viability, T/C [21]?
The viability, T/C was 1.77%.

And the viability, T/C [22]?
Its viability, T/C is 0.04%.

What about the viability, T/C [23] of the same compound?
The viability, T/C was 0.03%.

And the viability, T/C [24]?
Its viability, T/C is 0.07%.

And the viability, T/C [25]?
Its viability, T/C is 14.8%.

And the viability, T/C [26]?
Its viability, T/C is 12.7%.

And the viability, T/C [27]?
Its viability, T/C is 0.09%.

And the viability, T/C [28]?
Its viability, T/C is 0.05%.

And the viability, T/C [29]?
Its viability, T/C is 0.06%.

What about the viability, T/C [30] of the same compound?
Its viability, T/C is 0.09%.

What about the viability, T/C [31] of the same compound?
Its viability, T/C is 0.07%.

And the viability, T/C [32]?
The viability, T/C was 0.11%.

And the viability, T/C [33]?
The viability, T/C was 0.13%.

And the viability, T/C [34]?
Its viability, T/C is 0.09%.

And the viability, T/C [35]?
The viability, T/C was 0.14%.

What about the viability, T/C [36] of the same compound?
Its viability, T/C is 0.15%.
